Measurements reported in patent US20250296971A1, “GASTRIC INHIBITORY PEPTIDE RECEPTOR LIGANDS” (priority 2021, published 2025).
*1 amine or outer side, *2 acyl side, *3 side chain or, on linkers, in order; H or OH if unused. Where a SMILES comes first, the peptide text is derived from it. Bridges are numbered along the chain shown (N, C = ends). [ ]: non-standard residue; d: D form. The star is where a group is joined. X3 = O=C(O)CN1CCN(CC(=O)O)CCN(CC(=O)NCCCOCCOCCOCCCN*)CCN(CC(=O)O)CC1; Maleimide(3,4-diyl) = O=C1NC(=O)C([*:2])=C1[*:1]; Trp(5-Cl) = N[C@@H](Cc1c[nH]c2ccc(Cl)cc12)C(=O)O; Phe(3,4-Cl2) = N[C@@H](Cc1ccc(Cl)c(Cl)c1)C(=O)O; Pyridine(2,6-diCH2) = c1cc(C[*:1])nc(C[*:2])c1; Oic = O=C(O)[C@@H]1C[C@@H]2CCCC[C@@H]2N1; X23 = O=C(c1cccc(CSCCN[*:1])c1)[*:2]; Hyp = O=C(O)[C@@H]1C[C@@H](O)CN1; Suc = O=C(CCC(=O)[*:2])[*:1]; hCys = N[C@@H](CCS)C(=O)O; Thp = NC1(C(=O)O)CCOCC1; Dap = NC[C@H](N)C(=O)O; Aib = CC(C)(N)C(=O)O; Sar = CNCC(=O)O

target: T1, GIPR (CHO-K1-hGIPR cells) (Homo sapiens, UniProt P48546); experiment: FACS binding assay; details: competition with 20 nM GIP-057, 4° C. for 1 hour, read-out: pIC50 Category (converted)
T1 construct: host or cells: CHO-K1
T1 sequence (P48546 22-466): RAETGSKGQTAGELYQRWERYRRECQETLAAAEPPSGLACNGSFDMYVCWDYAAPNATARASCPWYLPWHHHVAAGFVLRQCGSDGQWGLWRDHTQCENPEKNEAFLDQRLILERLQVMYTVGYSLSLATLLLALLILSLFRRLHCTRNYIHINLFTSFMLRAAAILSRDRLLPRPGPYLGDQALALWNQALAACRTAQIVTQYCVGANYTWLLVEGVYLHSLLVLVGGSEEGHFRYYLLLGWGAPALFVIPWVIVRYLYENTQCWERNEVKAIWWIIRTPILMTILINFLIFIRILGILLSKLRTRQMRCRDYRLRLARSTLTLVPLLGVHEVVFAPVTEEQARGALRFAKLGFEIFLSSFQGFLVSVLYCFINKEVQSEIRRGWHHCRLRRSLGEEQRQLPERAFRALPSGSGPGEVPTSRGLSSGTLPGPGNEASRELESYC
How it was run: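 Median fluorescence in the APC channel, measured on washed CHO-K1 cells overexpressing human GIPR, was fitted by four-parameter logistic regression against peptide concentration to yield EC50 or IC50 values. Secondary labelling used APC-streptavidin (1 μg/mL, 30 min, ice).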

SMILES | IC50 [nM]
CC[C@H](C)[C@@H]1NC(=O)[C@H](CC(C)C)NC(=O)C2(CCOCC2)NC(=O)[C@@H](NC(=O)[C@@H](CC(C)C)NC(=O)[C@H](CCC(=O)O)NC(=O)[C@@H]2C[C@@H](O)CN2C(=O)[C@H](Cc2ccccc2)NC(=O)[C@H](Cc2c[nH]c3ccccc23)NC(=O)[C@H](CC(=O)O)NC(C)=O)CSCc2cccc(n2)CSC[C@@H](C(N)=O)NC1=O [GIP-352, Ac-Asp-Trp-Phe-Hyp-Glu-leu-[Cys(2Lut)-Thp-Leu-Ile-Cys]-NH2] (Ac-DWF[Hyp]E[dL]C[Thp]LIC-NH2; linker 7-11 via Pyridine(2,6-diCH2)) | > 1000
CC(=O)N[C@@H](CC(=O)O)C(=O)N[C@@H](Cc1c[nH]c2ccccc12)C(=O)N[C@@H](Cc1c[nH]c2ccc(Cl)cc12)C(=O)N1C[C@H](O)C[C@H]1C(=O)N[C@@H](CCC(=O)O)C(=O)N[C@H](CC(C)C)C(=O)N[C@H]1CSCc2cccc(n2)CSC[C@@H](C(N)=O)NC(=O)[C@H](CCCNC(=N)N)NC(=O)[C@H](CC(C)C)NC(=O)C2(CCOCC2)NC1=O [GIP-353, Ac-Asp-Trp-5Clw-Hyp-Glu-leu-[Cys(2Lut)-Thp-Leu-Arg-Cys]-NH2] (Ac-DW[Trp(5-Cl)][Hyp]E[dL]C[Thp]LRC-NH2; linker 7-11 via Pyridine(2,6-diCH2)) | > 1000
CC(=O)N[C@@H](CC(=O)O)C(=O)N[C@@H](Cc1c[nH]c2ccccc12)C(=O)N[C@@H](Cc1c[nH]c2ccc(Cl)cc12)C(=O)N1C[C@H](O)C[C@H]1C(=O)N[C@@H](CCC(=O)O)C(=O)N[C@H](CC(C)C)C(=O)N[C@H]1CSCc2cccc(n2)CSC[C@@H](C(N)=O)NC(=O)[C@H](CCC(=O)O)NC(=O)[C@H](CC(C)C)NC(=O)C2(CCOCC2)NC1=O [GIP-354, Ac-Asp-Trp-5Clw-Hyp-Glu-leu-[Cys(2Lut)-Thp-Leu-Glu-Cys]-NH2] (Ac-DW[Trp(5-Cl)][Hyp]E[dL]C[Thp]LEC-NH2; linker 7-11 via Pyridine(2,6-diCH2)) | > 1000
CC(=O)N[C@@H](CC(=O)O)C(=O)N[C@@H](Cc1c[nH]c2ccccc12)C(=O)N[C@@H](Cc1c[nH]c2ccc(Cl)cc12)C(=O)N1C[C@H](O)C[C@H]1C(=O)N[C@@H](CCC(=O)O)C(=O)N[C@H](CC(C)C)C(=O)N[C@H]1CSCc2cccc(n2)CSC[C@@H](C(N)=O)NC(=O)[C@H](Cc2c[nH]c3ccccc23)NC(=O)[C@H](CC(C)C)NC(=O)C2(CCOCC2)NC1=O [GIP-355, Ac-Asp-Trp-5Clw-Hyp-Glu-leu-[Cys(2Lut)-Thp-Leu-Trp-Cys]-NH2] (Ac-DW[Trp(5-Cl)][Hyp]E[dL]C[Thp]LWC-NH2; linker 7-11 via Pyridine(2,6-diCH2)) | > 1000
CC[C@H](C)[C@@H]1NC(=O)[C@H](CC(C)C)NC(=O)C2(CCOCC2)NC(=O)[C@@H](NC(=O)[C@@H](CC(C)C)NC(=O)[C@H](CCC(=O)O)NC(=O)[C@@H]2C[C@@H]3CCCC[C@@H]3N2C(=O)[C@H](Cc2ccc(Cl)c(Cl)c2)NC(=O)[C@H](Cc2ccc(Cl)c(Cl)c2)NC(=O)[C@H](CC(=O)O)NC(C)=O)CSCc2cccc(n2)CSC[C@@H](C(N)=O)NC1=O [GIP-356, Ac-Asp-Eaa-Eaa-Oic-Glu-leu-[Cys(2Lut)-Thp-Leu-Ile-Cys]-NH2] (Ac-D[Phe(3,4-Cl2)][Phe(3,4-Cl2)][Oic]E[dL]C[Thp]LIC-NH2; linker 7-11 via Pyridine(2,6-diCH2)) | > 1000
CC[C@H](C)[C@@H]1NC(=O)[C@H](CC(C)C)NC(=O)C2(CCOCC2)NC(=O)[C@@H](NC(=O)[C@@H](CC(C)C)NC(=O)[C@H](CCC(=O)O)NC(=O)CN(C)C(=O)[C@H](Cc2ccc(Cl)c(Cl)c2)NC(=O)[C@H](Cc2ccc(Cl)c(Cl)c2)NC(=O)[C@H](CC(=O)O)NC(C)=O)CSCc2cccc(n2)CSC[C@@H](C(N)=O)NC1=O [GIP-357, Ac-Asp-Eaa-Eaa-Nmg-Glu-leu-[Cys(2Lut)-Thp-Leu-Ile-Cys]-NH2] (Ac-D[Phe(3,4-Cl2)][Phe(3,4-Cl2)][Sar]E[dL]C[Thp]LIC-NH2; linker 7-11 via Pyridine(2,6-diCH2)) | > 1000

Now from value to compound:

IC50 [nM] | SMILES
< 10 | CC[C@H](C)[C@@H]1NC(=O)[C@H](CC(C)C)NC(=O)C(C)(C)NC(=O)[C@@H](NC(=O)[C@@H](CC(C)C)NC(=O)[C@H](CCC(=O)O)NC(=O)[C@@H]2CCCN2C(=O)[C@H](Cc2c[nH]c3ccc(Cl)cc23)NC(=O)[C@H](Cc2c[nH]c3ccccc23)NC(=O)[C@H](CC(=O)O)NC(=O)CCC(=O)NCCCOCCOCCOCCCNC(=O)CN2CCN(CC(=O)O)CCN(CC(=O)O)CCN(CC(=O)O)CC2)CNC(=O)c2cccc(c2)CSCCNC1=O [GIP-358, DOTA-Ttds-Asp-Trp-5Clw-Pro-Glu-leu-[Dap(3MeBz)-Aib-Leu-Ile-AET]] ({X3-Suc}-DW[Trp(5-Cl)]PE[dL][Dap][Aib]LI[X23]; lactam 7-C)
< 10 | CC[C@H](C)[C@@H]1NC(=O)[C@H](CC(C)C)NC(=O)C2(CCOCC2)NC(=O)[C@@H](NC(=O)[C@@H](CC(C)C)NC(=O)[C@H](CCC(=O)O)NC(=O)[C@@H]2C[C@@H](O)CN2C(=O)[C@H](Cc2c[nH]c3ccc(Cl)cc23)NC(=O)[C@H](Cc2c[nH]c3ccccc23)NC(=O)[C@H](CC(=O)O)NC(C)=O)CSC2=C(SC[C@@H](C(N)=O)NC1=O)C(=O)NC2=O [GIP-360, Ac-Asp-Trp-5Clw-Hyp-Glu-leu-[Cys(mli)-Thp-Leu-Ile-Cys]-NH2] (Ac-DW[Trp(5-Cl)][Hyp]E[dL]C[Thp]LIC-NH2; linker 7-11 via Maleimide(3,4-diyl))
< 10 | CC[C@H](C)[C@@H]1NC(=O)[C@H](CC(C)C)NC(=O)C2(CCOCC2)NC(=O)[C@@H](NC(=O)[C@@H](CC(C)C)NC(=O)[C@H](CCC(=O)O)NC(=O)[C@@H]2C[C@@H](O)CN2C(=O)[C@H](Cc2c[nH]c3ccc(Cl)cc23)NC(=O)[C@H](Cc2c[nH]c3ccccc23)NC(=O)[C@H](CC(=O)O)NC(C)=O)CSC2=C(SCC[C@@H](C(N)=O)NC1=O)C(=O)NC2=O [GIP-361, Ac-Asp-Trp-5Clw-Hyp-Glu-leu-[Cys(mli)-Thp-Leu-Ile-Hcy]-NH2] (Ac-DW[Trp(5-Cl)][Hyp]E[dL]C[Thp]LI[hCys]-NH2; linker 7-11 via Maleimide(3,4-diyl))
10 to 79.4 | CC[C@H](C)[C@@H]1NC(=O)[C@H](CC(C)C)NC(=O)C2(CCOCC2)NC(=O)[C@@H](NC(=O)[C@@H](CC(C)C)NC(=O)[C@H](CCC(=O)O)NC(=O)[C@@H]2C[C@@H](O)CN2C(=O)[C@H](Cc2c[nH]c3ccc(Cl)cc23)NC(=O)[C@H](Cc2c[nH]c3ccccc23)NC(=O)[C@H](CC(=O)O)NC(C)=O)CCSC2=C(SC[C@@H](C(N)=O)NC1=O)C(=O)NC2=O [GIP-362, Ac-Asp-Trp-5Clw-Hyp-Glu-leu-[Hcy(mli)-Thp-Leu-Ile-Cys]-NH2] (Ac-DW[Trp(5-Cl)][Hyp]E[dL][hCys][Thp]LIC-NH2; linker 7-11 via Maleimide(3,4-diyl))
10 to 79.4 | CC[C@H](C)[C@@H]1NC(=O)[C@H](CC(C)C)NC(=O)C2(CCOCC2)NC(=O)[C@@H](NC(=O)[C@@H](CC(C)C)NC(=O)[C@H](CCC(=O)O)NC(=O)[C@@H]2C[C@@H](O)CN2C(=O)[C@H](Cc2c[nH]c3ccc(Cl)cc23)NC(=O)[C@H](Cc2c[nH]c3ccccc23)NC(=O)[C@H](CC(=O)O)NC(C)=O)CCSSCC[C@@H](C(N)=O)NC1=O [GIP-363, Ac-Asp-Trp-5Clw-Hyp-Glu-leu-[Hey-Thp-Leu-Ile-Hcy]-NH2] (Ac-DW[Trp(5-Cl)][Hyp]E[dL][hCys][Thp]LI[hCys]-NH2; disulfide 7-11)
